Measured values: patent US12589092B2, “Polycyclic compound acting as kinase inhibitor” (HANGZHOU INNOGATE PHARMA CO., LTD., priority 2020, dated 2026)
Where two headings read alike, the source gives them in different places.

What was measured:
[1] = molecular target: CDK16/CycY (Homo sapiens, UniProt Q00536); assay: CDK16 kinase activity inhibition assay (ADP-Glo); format: biochemical; conditions: read-out: CDK16 kinase inhibitory activity (IC50)
Experimental: (§1) 3) CDK5, CDK9 and CDK16 Kinase Activity Inhibition Assay
(§2) CDK5/p35NCK, CDK9/CycT1 and CDK16/CycY protein kinase activities were determined using the ADP-Glo Kinase Assay. Dilute the positive compound and the test compound (10 mM stock solution) 25-fold with 100% DMSO, make a 4-fold serial dilution in a 96-well dilution plate, and add 1 μL of the compound to 49 μL of kinase reaction buffer (1 mM Tris, 20 mM MgCl2, 0.10% BSA and 0.5 mM DTT) on a microplate shaker for 20 min. Transfer 2 μL of 2× kinase to the 384-well reaction plate, add 1 μL of the test compound to the 384-well reaction plate, centrifuge at 1000 rpm/min for 1 min, and incubate at 25° C. for 10 min. Transfer 1 μL of the 4× substrate mix to the 384-well reaction plate, centrifuge at 1000 rpm/min for 1 min, and incubate at 25° C. for 60 min. Transfer 4 μL of ADP-Glo to the 384-well reaction plate to centrifuge at 1000 rpm/min for 1 min, and incubate at 25° C. for 40 min. Transfer 8 μL of detection solution to the 384-well reaction plate to centrifuge at 1000 rpm/min for 1 min, and incubate at 25° C. for 40 min. The RLU (Relative luminescence unit) signal was read using a Biotek multifunctional plate reader. Signal intensity is used to characterize the degree of kinase activity. Compound inhibition rate data: % inhibition rate=[1−(compound mean RLU−positive control mean RLU)/(negative control mean RLU−positive control mean RLU)]*100. Taking the log value of the concentration as the X axis and the percentage inhibition rate as the Y axis, the log(inhibitor) vs. response-Variable slope of the analysis software GraphPad Prism 5 was used to fit the dose-response curve to obtain the IC50 value of each compound on the enzyme activity.

[2] = molecular target: CDK5/p35NCK (Homo sapiens, UniProt Q00535); assay: CDK5 kinase activity inhibition assay (ADP-Glo); format: biochemical; conditions: read-out: CDK5 kinase inhibitory activity (IC50)
Experimental: as §1, §2

[3] = molecular target: CDK4/CycD3 (Homo sapiens, UniProt P11802); assay: CDK4 kinase activity inhibition assay (caliper mobility shift); format: biochemical; conditions: CDK4/CycD3 10 nM, ATP 221 μM; read-out: CDK4 kinase inhibitory activity (IC50)
Experimental: (§3) 1) CDK2, CDK4 and CDK6 Kinase Activity Inhibition Assay
(§4) In vitro enzymatic activity of the CDK isoforms CDK2/CycA2, CDK4/CycD3 and CDK6/cycD3 were measured using caliper mobility shift assay. Dissolve the compounds in DMSO and dilute them with corresponding kinase buffer (CDK2/CycA2 and CDK6/CycD3 were assayed with buffer conditions of 50 mM HEPES (pH 7.5), 10 mM MgCl2, 0.0015% Brij-35 and 2 mM dithiothreitol; CDK4/CycD3 was assayed with buffer condition of 20 mM HEPES (pH 7.5), 10 mM MgCl2, 0.01% Triton X-100 and 2 mM dithiothreitol). Add 5 μl of compound (10% DMSO) with 5 times the final concentration of the reaction to a 384-well plate. […] Collect conversion data on Caliper EZ Reader II (Caliper Life Sciences). Convert the conversion rate into inhibition rate data (% inhibition rate=(max−conversion rate)/(max−min)*100). […] Draw a curve with the concentration and inhibition rate of the compound as abscissa and ordinate, and use XLFit excel add-in version 4.3.1 software to fit the curve and calculate IC50.

[4] = molecular target: CDK6/cycD3 (Homo sapiens, UniProt Q00534); assay: CDK6 kinase activity inhibition assay (caliper mobility shift); format: biochemical; conditions: CDK6/cycD3 15 nM, ATP 800 μM; read-out: CDK6 kinase inhibitory activity (IC50)
Experimental: as §3, §4

[5] = molecular target: CDK9/CycT1 (Homo sapiens, UniProt P50750); assay: CDK9 kinase activity inhibition assay (ADP-Glo); format: biochemical; conditions: read-out: CDK9 kinase inhibitory activity (IC50)
Experimental: as §1, §2

[6] = molecular target: TRKA (Homo sapiens, UniProt P04629); assay: TRKA kinase activity inhibition assay (caliper mobility shift); format: biochemical
Experimental: 2) TRKA Kinase Activity Inhibition Assay
TRKA protein kinase activity was measured by caliper mobility shift assay. Compounds were dissolved in DMSO to make up 10 mM stock solutions. Prepare 1× kinase reaction buffer to serially dilute compounds. 250 nL 100× final concentration of the test compounds were transferred to destination plate 3573 by dispenser Echo 550. Prepare a 2.5× final concentration of kinase solution with 1× kinase buffer. Add 10 μL of 2.5× final kinase solution to compound wells and positive control wells; add 10 μL of 1× kinase buffer to negative control wells. Centrifuge at 1000 rpm for 30 s, shake and mix the reaction plate and incubate at room temperature for 10 min. Prepare a mixture of ATP and kinase substrate solution at 5/3× final concentration with 1× kinase buffer. The reaction was initiated by adding 15 μL of the mixed solution. Centrifuge the 384-well plate at 1000 rpm for 30 s, shake and mix well, and incubate at room temperature for the corresponding time. Add 30 μL of stop solution to stop the kinase reaction, centrifuge at 1000 rpm for 30 s, mix by shaking, and read the conversion rate data with Caliper EZ Reader. Convert conversion to inhibition data (% inhibition=(max DMSO well conversion−sample well conversion)/(max DMSO well conversion−min negative control conversion)*100). Wherein max refers to the conversion rate of the DMSO control, and min refers to the conversion rate of the non-enzymatic control. Draw a curve with the concentration and inhibition rate of the compound as abscissa and ordinate, and use XLFit excel add-in version 4.3.1 software to fit the curve and calculate IC50.

[7] = Pharmacokinetic study in rats (intragastrical administration, plasma LC-MS/MS); conditions: male, SD, rat, po, 3 mg/kg
Experimental: Instruments: XEVO TQ-S LC/MS instrument produced by Waters. All measurement data is collected and processed by Masslynx V4.1 software, and the data is calculated and processed by Microsoft Excel. Using WinNonLin 8.0 software, the statistical moment method was used to calculate the pharmacokinetic parameters. Mainly include kinetic parameters Tmax, T1/2, Cmax, AUClast etc. Column: ACQUITY UPLC BEH C18 (2.1 mm×50 mm, 1.7 μm); column temperature 40° C.; mobile phase A is water (0.1% formic acid), mobile phase B is acetonitrile, flow rate is 0.350 ml/min, gradient elution is adopted, the elution gradient is 0.50 min: 10% B; 1.50 min: 10% B; 2.30 min: 95% B; 2.31 min: 10% B; 3.00 min: stop. Injection volume: 5 μL.
Animals: 3 male SD rats with a weight range of 200-220 g. After purchase, they will be kept in the laboratory of the Experimental Animal Center for 2 days and then used. They will be fasted for 12 hours predose and 4 hours after dosing. Drinking water is free during the test. After the rats were gavage, blood samples were taken according to the established time point.
Solvent: 0.5% Methylcellulose (aqueous solution containing 0.4% Tween 80 and 1% ethanol). Preparation of the solution for intragastrical administration: accurately weigh the compound, add it to the solvent, and use ultrasound at room temperature for 5 minutes to completely dissolve the drug, and prepare a 0.3 mg/ml medicinal solution.
A single administration was also used to study the pharmacokinetics of the drug sample in rats.
After intragastrical administration, blood was taken from the orbit at 0.25, 0.5, 1, 2, 4, 9, 12 and 24 hours, and placed in a plastic centrifuge tube pretreated with sodium heparin. After centrifugation, the supernatant plasma was used for LC-MS/MS analysis.
Accurately weigh the compounds to prepare different concentrations, perform quantitative analysis on mass spectrometry to establish a standard curve, and then test the concentration of the above-mentioned compound in the plasma to obtain the compound concentration at different time points. All measurement data are collected and processed by relevant software, and the statistical moment method is used to calculate the pharmacokinetic parameters (mainly including kinetic parameters Tmax, T1/2, Cmax, AUClast etc).

[8] = molecular target: CDK2/CycA2 (Homo sapiens, UniProt P24941); assay: CDK2 kinase activity inhibition assay (caliper mobility shift); format: biochemical; conditions: CDK2/CycA2 12 nM, ATP 39 μM; read-out: CDK2 kinase inhibitory activity (IC50)
Experimental: as §3, §4

[9] = read-out: TRKA kinase inhibitory activity (IC50)

CDK4/CycD3, sequence (P11802 whole entry): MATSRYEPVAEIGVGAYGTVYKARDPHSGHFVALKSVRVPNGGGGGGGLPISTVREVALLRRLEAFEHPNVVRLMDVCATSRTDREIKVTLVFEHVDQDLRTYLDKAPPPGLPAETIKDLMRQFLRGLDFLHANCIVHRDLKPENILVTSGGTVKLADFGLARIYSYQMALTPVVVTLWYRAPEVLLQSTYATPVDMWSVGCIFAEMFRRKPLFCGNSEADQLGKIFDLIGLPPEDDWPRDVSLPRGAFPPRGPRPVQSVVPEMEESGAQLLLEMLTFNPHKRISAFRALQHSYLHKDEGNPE
CDK4/CycD3, sequence (P30281 whole entry partner): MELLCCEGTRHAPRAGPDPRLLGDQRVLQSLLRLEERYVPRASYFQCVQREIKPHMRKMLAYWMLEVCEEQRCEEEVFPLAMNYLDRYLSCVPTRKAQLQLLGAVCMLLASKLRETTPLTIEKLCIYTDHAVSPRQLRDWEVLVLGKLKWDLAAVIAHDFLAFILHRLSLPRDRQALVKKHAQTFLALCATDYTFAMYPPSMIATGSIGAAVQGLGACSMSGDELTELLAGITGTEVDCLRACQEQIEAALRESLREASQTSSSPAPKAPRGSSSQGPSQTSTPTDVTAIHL
CDK5/p35NCK, sequence (Q00535 whole entry): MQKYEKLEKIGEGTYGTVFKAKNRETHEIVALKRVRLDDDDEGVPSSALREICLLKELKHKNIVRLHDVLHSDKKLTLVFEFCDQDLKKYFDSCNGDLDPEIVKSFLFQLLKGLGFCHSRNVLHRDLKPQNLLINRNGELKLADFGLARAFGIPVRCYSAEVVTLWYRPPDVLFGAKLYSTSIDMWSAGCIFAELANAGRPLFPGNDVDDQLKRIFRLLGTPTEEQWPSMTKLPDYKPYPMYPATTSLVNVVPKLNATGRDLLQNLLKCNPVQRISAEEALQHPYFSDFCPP
CDK5/p35NCK, sequence (Q15078 whole entry partner): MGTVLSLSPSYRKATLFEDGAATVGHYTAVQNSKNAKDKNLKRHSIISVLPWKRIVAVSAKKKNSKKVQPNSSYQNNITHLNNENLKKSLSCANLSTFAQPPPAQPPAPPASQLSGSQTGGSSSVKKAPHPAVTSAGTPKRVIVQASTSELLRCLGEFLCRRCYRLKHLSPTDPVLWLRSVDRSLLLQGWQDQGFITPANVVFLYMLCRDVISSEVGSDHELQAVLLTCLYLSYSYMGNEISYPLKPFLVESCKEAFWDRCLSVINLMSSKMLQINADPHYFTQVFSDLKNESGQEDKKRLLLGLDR
TRKA, sequence (P04629 33-796): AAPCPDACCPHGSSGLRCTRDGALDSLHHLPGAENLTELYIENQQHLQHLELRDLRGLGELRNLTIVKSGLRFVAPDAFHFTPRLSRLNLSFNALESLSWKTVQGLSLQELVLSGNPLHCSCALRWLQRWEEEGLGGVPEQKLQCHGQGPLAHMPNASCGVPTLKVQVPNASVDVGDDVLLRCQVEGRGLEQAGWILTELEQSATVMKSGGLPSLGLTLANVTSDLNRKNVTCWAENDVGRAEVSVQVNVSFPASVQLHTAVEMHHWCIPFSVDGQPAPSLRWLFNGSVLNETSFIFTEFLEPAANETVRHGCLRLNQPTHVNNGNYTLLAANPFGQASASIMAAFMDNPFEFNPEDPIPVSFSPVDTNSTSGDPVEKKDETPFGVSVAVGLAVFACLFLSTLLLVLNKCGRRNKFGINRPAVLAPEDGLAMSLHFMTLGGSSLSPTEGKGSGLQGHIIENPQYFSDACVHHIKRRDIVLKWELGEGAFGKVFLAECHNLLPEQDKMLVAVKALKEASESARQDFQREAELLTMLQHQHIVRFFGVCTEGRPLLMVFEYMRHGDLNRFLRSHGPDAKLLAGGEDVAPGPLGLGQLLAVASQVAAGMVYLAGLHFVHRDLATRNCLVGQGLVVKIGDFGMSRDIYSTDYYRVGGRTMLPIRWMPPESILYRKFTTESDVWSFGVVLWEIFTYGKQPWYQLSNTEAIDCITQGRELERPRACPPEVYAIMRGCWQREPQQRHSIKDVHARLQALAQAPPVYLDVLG
CDK16/CycY, sequence (Q00536 whole entry): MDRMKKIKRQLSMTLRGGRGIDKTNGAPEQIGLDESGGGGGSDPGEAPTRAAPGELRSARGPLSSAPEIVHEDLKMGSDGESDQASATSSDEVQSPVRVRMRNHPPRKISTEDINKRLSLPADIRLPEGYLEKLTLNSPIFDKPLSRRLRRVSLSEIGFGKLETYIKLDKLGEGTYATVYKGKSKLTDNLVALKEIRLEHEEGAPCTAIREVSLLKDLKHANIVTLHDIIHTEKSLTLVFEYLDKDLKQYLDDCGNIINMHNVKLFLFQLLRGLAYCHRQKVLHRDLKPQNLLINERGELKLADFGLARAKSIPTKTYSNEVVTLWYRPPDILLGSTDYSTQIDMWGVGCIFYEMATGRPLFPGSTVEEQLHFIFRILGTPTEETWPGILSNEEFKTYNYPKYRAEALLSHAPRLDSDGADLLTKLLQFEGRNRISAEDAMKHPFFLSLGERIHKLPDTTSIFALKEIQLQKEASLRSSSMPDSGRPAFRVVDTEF
CDK16/CycY, sequence (Q8ND76 whole entry partner): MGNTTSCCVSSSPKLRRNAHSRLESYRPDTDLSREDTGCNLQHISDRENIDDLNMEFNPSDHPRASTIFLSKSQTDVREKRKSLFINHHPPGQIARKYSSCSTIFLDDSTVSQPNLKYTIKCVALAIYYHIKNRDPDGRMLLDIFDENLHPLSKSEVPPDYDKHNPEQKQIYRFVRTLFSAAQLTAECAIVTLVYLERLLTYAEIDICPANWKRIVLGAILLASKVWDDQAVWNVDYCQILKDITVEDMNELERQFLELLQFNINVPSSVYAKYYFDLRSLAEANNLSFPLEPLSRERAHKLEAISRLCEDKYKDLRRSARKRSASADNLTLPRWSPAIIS
CDK6/cycD3, sequence (Q00534 whole entry): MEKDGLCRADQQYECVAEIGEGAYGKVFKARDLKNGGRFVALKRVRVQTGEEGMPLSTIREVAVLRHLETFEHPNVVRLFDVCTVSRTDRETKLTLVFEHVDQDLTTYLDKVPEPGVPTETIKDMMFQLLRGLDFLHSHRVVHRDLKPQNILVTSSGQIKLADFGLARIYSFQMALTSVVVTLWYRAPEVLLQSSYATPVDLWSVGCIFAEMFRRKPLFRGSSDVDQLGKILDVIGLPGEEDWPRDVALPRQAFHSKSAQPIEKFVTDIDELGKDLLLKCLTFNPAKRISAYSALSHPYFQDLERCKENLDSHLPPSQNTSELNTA
CDK6/cycD3, sequence (P30281 whole entry partner): as the sequence (P30281 whole entry partner) above
CDK9/CycT1, sequence (P50750 whole entry): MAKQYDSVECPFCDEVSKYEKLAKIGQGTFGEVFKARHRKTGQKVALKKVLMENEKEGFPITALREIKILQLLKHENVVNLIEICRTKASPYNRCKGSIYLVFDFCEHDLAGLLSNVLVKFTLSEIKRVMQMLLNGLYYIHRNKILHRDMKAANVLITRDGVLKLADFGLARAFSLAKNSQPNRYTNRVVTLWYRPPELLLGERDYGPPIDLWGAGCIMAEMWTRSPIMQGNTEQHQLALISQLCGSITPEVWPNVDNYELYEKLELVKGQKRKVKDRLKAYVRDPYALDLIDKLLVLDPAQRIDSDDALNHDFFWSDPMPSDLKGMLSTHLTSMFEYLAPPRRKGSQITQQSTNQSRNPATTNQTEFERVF
CDK9/CycT1, sequence (O60563 whole entry partner): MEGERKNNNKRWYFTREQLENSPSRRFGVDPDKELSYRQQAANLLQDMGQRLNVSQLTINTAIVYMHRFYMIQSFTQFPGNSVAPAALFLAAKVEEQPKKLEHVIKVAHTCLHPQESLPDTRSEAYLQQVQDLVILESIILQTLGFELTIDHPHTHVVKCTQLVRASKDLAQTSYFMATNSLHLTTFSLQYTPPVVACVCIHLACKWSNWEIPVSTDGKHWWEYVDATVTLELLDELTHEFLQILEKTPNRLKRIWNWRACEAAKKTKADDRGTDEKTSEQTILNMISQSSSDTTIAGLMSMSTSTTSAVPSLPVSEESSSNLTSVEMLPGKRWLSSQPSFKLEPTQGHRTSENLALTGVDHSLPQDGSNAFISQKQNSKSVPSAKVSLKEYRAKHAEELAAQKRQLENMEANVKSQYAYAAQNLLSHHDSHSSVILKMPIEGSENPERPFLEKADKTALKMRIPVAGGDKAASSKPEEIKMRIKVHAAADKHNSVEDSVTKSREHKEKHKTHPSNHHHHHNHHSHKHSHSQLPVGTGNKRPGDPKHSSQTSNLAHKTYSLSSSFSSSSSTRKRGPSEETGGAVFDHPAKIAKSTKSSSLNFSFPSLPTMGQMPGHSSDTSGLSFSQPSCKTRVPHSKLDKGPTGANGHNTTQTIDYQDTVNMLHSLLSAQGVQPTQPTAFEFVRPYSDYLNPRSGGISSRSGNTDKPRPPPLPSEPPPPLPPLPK

| SMILES | IC50 [1] [nM] | IC50 [2] [nM] | IC50 [3] [nM] | IC50 [4] [nM] | IC50 [5] [nM] | IC50 [6, 9] [nM] | AUC(0-t) [7] [ng·h/mL] | Cmax [7] [ng/mL] | Tmax [7] [h] | half-life [7] [h] | IC50 [8] [nM] | IC50 [6] [nM] |
| --- | --- | --- | --- | --- | --- | --- | --- | --- | --- | --- | --- | --- |
| CC(=O)c1c(C)c2cnc(Nc3ccc4c(c3)OC[C@H]3CN(C5CCOCC5)CCN43)nc2n(C2CCCC2)c1=O [Compound 1R] | < 100 | < 100 | < 10 | < 20 | < 50 | < 10 | 274 | 43.4 | 2 | 2.96 | < 100 | – |
| CC(=O)c1c(C)c2cnc(Nc3ccc4c(c3)OC[C@@H]3CN(C5CCOCC5)CCN43)nc2n(C2CCCC2)c1=O [Compound 1S] | – | – | < 10 | < 20 | – | – | 192 | 37.3 | 3 | 6.41 | < 100 | – |
| CC(=O)c1c(C)c2cnc(Nc3ccc4c(c3)OC[C@H]3CN(C5CCN(C)CC5)CCN43)nc2n(C2CCCC2)c1=O [Compound 2R] | – | – | < 10 | < 10 | – | – | – | – | – | – | < 100 | < 10 |
| CC(=O)c1c(C)c2cnc(Nc3ccc4c(c3)OC[C@H]3CN(C5CCNCC5)CCN43)nc2n(C2CCCC2)c1=O [Compound 3R] | – | – | < 10 | < 10 | – | – | – | – | – | – | < 100 | – |
| CC(=O)c1c(C)c2cnc(Nc3ccc4c(c3)OC[C@@H]3CN(C5CCNCC5)CCN43)nc2n(C2CCCC2)c1=O [Compound 3S] | < 50 | < 100 | < 10 | < 10 | < 20 | < 10 | 1230 | 85.7 | 5.33 | 5.68 | < 100 | – |
| CCN1CCC(N2CCN3c4ccc(Nc5ncc6c(C)c(C(C)=O)c(=O)n(C7CCCC7)c6n5)cc4OC[C@@H]3C2)CC1 [Compound 4S] | < 100 | < 100 | < 10 | < 10 | < 20 | < 10 | 3770 | 250 | 12 | 10.7 | < 100 | – |
| CC(=O)c1c(C)c2cnc(Nc3ccc4c(c3)OC[C@@H]3CN(C5CCN(C(C)=O)CC5)CCN43)nc2n(C2CCCC2)c1=O [Compound 5S] | – | – | < 10 | < 10 | – | – | 2480 | 266 | 6 | 2.18 | < 100 | – |
| CC(=O)c1c(C)c2cnc(Nc3ccc4c(c3)OC[C@@H]3CN(C5CCN(C6CC6)CC5)CCN43)nc2n(C2CCCC2)c1=O [Compound 6S] | – | – | < 10 | < 10 | – | – | 662 | 54.9 | 6.67 | 4.31 | < 100 | – |
| CC(=O)c1c(C)c2cnc(Nc3cc(C)c4c(c3)OC[C@@H]3CN(C5CCN(C)CC5)CCN43)nc2n(C2CCCC2)c1=O [Compound 8S] | – | – | < 20 | < 100 | – | – | – | – | – | – | < 500 | – |
| CC(=O)c1c(C)c2cnc(Nc3cc(F)c4c(c3)OC[C@@H]3CN(C5CCN(C)CC5)CCN43)nc2n(C2CCCC2)c1=O [Compound 9S] | – | – | < 10 | < 50 | – | – | 697 | 42.5 | 12 | 15.6 | < 500 | – |
| CC(=O)c1c(C)c2cnc(Nc3ccc4c(c3)OC[C@@H]3CN(C5CN(C(C)=O)C5)CCN43)nc2n(C2CCCC2)c1=O [Compound 11S] | – | – | < 10 | < 20 | – | < 10 | 3000 | 424 | 2 | 2.61 | < 100 | – |
| CC(=O)c1c(C)c2cnc(Nc3ccc4c(c3)OC[C@@H]3CN(C5CN(C6CC6)C5)CCN43)nc2n(C2CCCC2)c1=O [Compound 12S] | – | – | < 10 | < 10 | – | – | – | – | – | – | < 100 | – |
| CC(=O)c1c(C)c2cnc(Nc3ccc4c(c3)OC[C@@H]3CN(C5COC5)CCN43)nc2n(C2CCCC2)c1=O [Compound 13S] | – | – | < 10 | < 20 | – | – | 860 | 169 | 1.83 | 1.95 | < 100 | – |
| CC(=O)c1c(C)c2cnc(Nc3ccc4c(c3)OC[C@@H]3CN(C5CN(S(C)(=O)=O)C5)CCN43)nc2n(C2CCCC2)c1=O [Compound 14S] | – | – | < 10 | < 20 | – | – | 2030 | 442 | 1.33 | 1.84 | < 100 | – |
| CC(=O)c1c(C)c2cnc(Nc3ccc4c(c3)OC[C@@H]3CN(C5CC(F)(F)C5)CCN43)nc2n(C2CCCC2)c1=O [Compound 15S] | – | – | < 50 | – | – | < 100 | – | – | – | – | < 1000 | – |
| CC(=O)c1c(C)c2cnc(Nc3ccc4c(c3)OC[C@@H]3CN(C5CCN(CC(F)(F)F)CC5)CCN43)nc2n(C2CCCC2)c1=O [Compound 16S] | – | – | < 10 | – | – | – | – | – | – | – | < 500 | – |
| CC(=O)c1c(C)c2cnc(Nc3ccc4c(c3)OC[C@@H]3CN(C5CCN(CC#N)CC5)CCN43)nc2n(C2CCCC2)c1=O [Compound 17S] | – | – | < 10 | – | – | – | – | – | – | – | < 100 | – |
| CC(=O)c1c(C)c2cnc(Nc3ccc4c(c3)OC[C@@H]3CN(C5CCC5)CCN43)nc2n(C2CCCC2)c1=O [Compound 18S] | – | – | < 10 | – | – | – | – | – | – | – | < 500 | – |
| CC(=O)c1c(C)c2cnc(Nc3ccc4c(c3)N3CCN(C5CCN(C)CC5)C[C@H]3CO4)nc2n(C2CCCC2)c1=O [Compound 19S] | – | – | < 100 | – | – | – | – | – | – | – | < 500 | – |
| CC(=O)c1c(C)c2cnc(Nc3ccc4c(c3)N3CCN(C5CCNCC5)C[C@H]3CO4)nc2n(C2CCCC2)c1=O [Compound 20S] | – | – | – | – | – | – | – | – | – | – | < 500 | – |
| CC(=O)c1c(C)c2cnc(Nc3ccc4c(c3)N3CCN(C5CCN(C(C)=O)CC5)C[C@H]3CO4)nc2n(C2CCCC2)c1=O [Compound 21S] | – | – | – | – | – | – | – | – | – | – | < 500 | – |
| CC(=O)c1c(C)c2cnc(Nc3ccc4c(c3)OCC3CNCCN43)nc2n(C2CCCC2)c1=O (centres unmarked) [Ref-B, reference compound] | – | – | – | – | – | – | 108 | 13.9 | 3.33 | 6.71 | – | – |
